Experimental data reported in patent US7893055B2, “HIV integrase inhibitors” (priority 2006, dated 2011).

Target: T1, HIV-integrase (Human immunodeficiency virus type 1 group M subtype B, UniProt P12497)
T1 construct: Recombinant integrase (0.26 ng) was incubated with the beads
Experiment: HIV-Integrase Inhibition Activity (SPA strand transfer assay)
Type: biochemical
Conditions: recombinant integrase, SPA beads, P33 labeled target DNA; read-out: Activity (IC50 class, HIV-integrase inhibition)
Experimental: HIV-Integrase InhibitionActivity. To evaluate in-vitro activity against HIV-integrase, 5 pmole of biotin labeled substrate DNA was bound to 100 μg of Streptavidin coated PVT SPA beads (Amersham Pharmacia Biotech). Recombinant integrase (0.26 ng) was incubated with the beads for 90 min at 37° C. Unbound enzyme was removed by washing the complex followed by addition of inhibitors and 0.1 fmol of P33 labeled target DNA. The reaction was stopped by adding EDTA to a final concentration of 10 mM. Samples were counted in TopCountNXT (Packard) and the CPM was used as a measure of integration. The reaction condition was as described in A. Engelman and R. Craigie, J. Virol. 69, 5908-5911 (1995). The sequences of substrate and target DNA were described in Nucleic Acid Research 22, 1121-1122 (1994). Activity equal to A refers to a compound having IC50=0.002 to 0.10 μM while B and C denote compounds having IC50=0.1 to 1.0 μM and IC50≧1.0 μM respectively.

Molecule: Cc1csc(CNC(=O)c2nc3n(c(=O)c2O)CCOC3(C)C)c1 [Example 30, Pyrimido[2,1-c][1,4]oxazine-2-carboxamide, 4,6,7,9-tetrahydro-3-hydroxy-9,9-dimethyl-N-[(4-methyl-2-thienyl)methyl]-4-oxo-]
- IC50: 2 to 100 nM

Molecule: Cc1cc(CNC(=O)c2nc3n(c(=O)c2O)CCOC3(C)C)sc1C [Example 31, N-((4,5-dimethyl-2-thienyl)methyl)-3-hydroxy-9,9-dimethyl-4-oxo-4,6,7,9-tetrahydropyrimido[2,1-c][1,4]oxazine-2-carboxamide]
- IC50: 2 to 100 nM

Molecule: Cc1cc(CNC(=O)c2nc3n(c(=O)c2O)CCOC3(C)C)cs1 [Example 32, Pyrimido[2,1-c][1,4]oxazine-2-carboxamide, 4,6,7,9-tetrahydro-3-hydroxy-9,9-dimethyl-N-[(5-methyl-3-thienyl)methyl]-4-oxo-]
- IC50: 2 to 100 nM

Molecule: Cc1cc(Br)c(CNC(=O)c2nc3n(c(=O)c2O)CCOC3(C)C)s1 [Example 33, Pyrimido[2,1-c][1,4]oxazine-2-carboxamide, N-[(3-bromo-5-methyl-2-thienyl)methyl]-4,6,7,9-tetrahydro-3-hydroxy-9,9-dimethyl-4-oxo-]
- IC50: 2 to 100 nM

Molecule: Cc1cc(C#N)c(CNC(=O)c2nc3n(c(=O)c2O)CCOC3(C)C)s1 [Example 34, Pyrimido[2,1-c][1,4]oxazine-2-carboxamide, N-[(3-cyano-5-methyl-2-thienyl)methyl]-4,6,7,9-tetrahydro-3-hydroxy-9,9-dimethyl-4-oxo-]
- IC50: 2 to 100 nM

Molecule: CC1=CC=C(CNC(=O)c2nc3n(c(=O)c2O)CCOC3(C)C)S1(=O)=O [Example 35, Pyrimido[2,1-c][1,4]oxazine-2-carboxamide, 4,6,7,9-tetrahydro-3-hydroxy-9,9-dimethyl-N-[(5-methyl-1,1-dioxido-2-thienyl)methyl]-4-oxo-]
- IC50: ≥ 1000 nM

Molecule: CC1(C)OCCn2c1nc(C(=O)NCc1ccsc1)c(O)c2=O [Example 36, Pyrimido[2,1-c][1,4]oxazine-2-carboxamide, 4,6,7,9-tetrahydro-3-hydroxy-9,9-dimethyl-4-oxo-N-(3-thienylmethyl)-]
- IC50: 2 to 100 nM

Molecule: Cc1ccc(CNC(=O)c2nc3n(c(=O)c2O)CCOC3(C)C)o1 [Example 37, Pyrimido[2,1-c][1,4]oxazine-2-carboxamide, 4,6,7,9-tetrahydro-3-hydroxy-9,9-dimethyl-N-[(5-methyl-2-furanyl)methyl]-4-oxo-]
- IC50: 2 to 100 nM

Molecule: CC1(C)OCCn2c1nc(C(=O)NCc1ccco1)c(O)c2=O [Example 38, Pyrimido[2,1-c][1,4]oxazine-2-carboxamide, N-(2-furanylmethyl)-4,6,7,9-tetrahydro-3-hydroxy-9,9-dimethyl-4-oxo-]
- IC50: 2 to 100 nM

Molecule: Cc1nn(C)c(C)c1CNC(=O)c1nc2n(c(=O)c1O)CCOC2(C)C [Example 39, Pyrimido[2,1-c][1,4]oxazine-2-carboxamide, 4,6,7,9-tetrahydro-3-hydroxy-9,9-dimethyl-4-oxo-N-[(1,3,5-trimethyl-1H-pyrazol-4-yl)methyl]-]
- IC50: 100 to 1000 nM

Molecule: CCn1cc(CNC(=O)c2nc3n(c(=O)c2O)CCOC3(C)C)cn1 [Example 65, Pyrimido[2,1-c][1,4]oxazine-2-carboxamide, N-[(1-ethyl-1H-pyrazol-4-yl)methyl]-4,6,7,9-tetrahydro-3-hydroxy-9,9-dimethyl-4-oxo-]
- IC50: 100 to 1000 nM

Molecule: CC1(C)OCCn2c1nc(C(=O)NCc1cc(C(=O)O)co1)c(O)c2=O [Example 75, 3-Furancarboxylic acid, 5-[[[(4,6,7,9-tetrahydro-3-hydroxy-9,9-dimethyl-4-oxopyrimido[2,1-c][1,4]oxazin-2-yl)carbonyl]amino]methyl]]
- IC50: ≥ 1000 nM

Molecule: CC1(C)OCCn2c1nc(C(=O)NCC1Cc3ccccc3O1)c(O)c2=O (stereo not drawn) [Example 76, N-(2,3-dihydro-1-benzofuran-2-ylmethyl)-3-hydroxy-9,9-dimethyl-4-oxo-4,6,7,9-tetrahydropyrimido[2,1-c][1,4]oxazine-2-carboxamide]
- IC50: 2 to 100 nM

Molecule: Cc1ccc(CNC(=O)c2nc3n(c(=O)c2O)CCN(C)C32CCC2)o1 [Example 77, 3′-Hydroxy-8′-methyl-N-((5-methyl-2-furyl)methyl)-4′-oxo-7′,8′-dihydro-4′H,6′H-spiro[cyclobutane-1,9′-pyrazino[1,2-a]pyrimidine]-2′-carboxamide]
- IC50: 2 to 100 nM

Molecule: CC1(C)OCCn2c1nc(C(=O)NCc1nn(S(C)(=O)=O)c3ccccc13)c(O)c2=O [Example 78, 3-Hydroxy-9,9-dimethyl-N-((1-(methylsulfonyl)-1H-indazol-3-yl)methyl)-4-oxo-4,6,7,9-tetrahydropyrimido[2,1-c][1,4]oxazine-2-carboxamide]
- IC50: 2 to 100 nM

Molecule: COC(=O)n1nc(CNC(=O)c2nc3n(c(=O)c2O)CCOC3(C)C)c2ccccc21 [Example 79, Methyl 3-((((3-hydroxy-9,9-dimethyl-4-oxo-4,6,7,9-tetrahydropyrimido[2,1-c][1,4]oxazin-2-yl)carbonyl)amino)methyl)-1H-indazole-1-carboxylate]
- IC50: 2 to 100 nM

Molecule: CNC(=O)n1nc(CNC(=O)c2nc3n(c(=O)c2O)CCOC3(C)C)c2ccccc21 [Example 80, 3-Hydroxy-9,9-dimethyl-N-((1-(methylcarbamoyl)-1H-indazol-3-yl)methyl)-4-oxo-4,6,7,9-tetrahydropyrimido[2,1-c][1,4]oxazine-2-carboxamide]
- IC50: 2 to 100 nM

Molecule: CC(=O)n1nc(CNC(=O)c2nc3n(c(=O)c2O)CCOC3(C)C)c2ccccc21 [Example 81, N-((1-Acetyl-1H-indazol-3-yl)methyl)-3-hydroxy-9,9-dimethyl-4-oxo-4,6,7,9-tetrahydropyrimido[2,1-c][1,4]oxazine-2-carboxamide]
- IC50: 2 to 100 nM

Molecule: Cc1ccc(CNC(=O)c2nc3n(c(=O)c2O)CCCC32CCC2)o1 [Example 82, 3′-Hydroxy-N-((5-methyl-2-furyl)methyl)-4′-oxo-7′,8′-dihydro-4′H,6′H-spiro[cyclobutane-1,9′-pyrido[1,2-a]pyrimidine]-2′-carboxamide]
- IC50: 2 to 100 nM

Molecule: Cc1csc(CNC(=O)c2nc3n(c(=O)c2O)CCCC32CCC2)c1 [Example 83, 3′-Hydroxy-N-((4-methyl-2-thienyl)methyl)-4′-oxo-7′,8′-dihydro-4′H,6′H-spiro[cyclobutane-1,9′-pyrido[1,2-a]pyrimidine]-2′-carboxamide]
- IC50: 2 to 100 nM

Molecule: Cc1ccc(CNC(=O)c2nc3n(c(=O)c2O)CCCC32CCC2)s1 [Example 84, 3′Hhydroxy-N-((5-methyl-2-thienyl)methyl)-4′-oxo-7′,8′-dihydro-4′H,6′H-spiro[cyclobutane-1,9′-pyrido[1,2-a]pyrimidine]-2′-carboxamide]
- IC50: 2 to 100 nM

Molecule: Cc1nnc(CNC(=O)c2nc3n(c(=O)c2O)CCOC3(C)C)o1 [Example 86, 3-Hydroxy-9,9-dimethyl-N-((5-methyl-1,3,4-oxadiazol-2-yl)methyl)-4-oxo-4,6,7,9-tetrahydropyrimido[2,1-c][1,4]oxazine-2-carboxamide]
- IC50: ≥ 1000 nM

Molecule: CSc1ccc(CNC(=O)c2nc3n(c(=O)c2O)CCOC3(C)C)o1 [Example 87, 3-Hydroxy-9,9-dimethyl-N-((5-(methylthio)furan-2-yl)methyl)-4-oxo-4,6,7,9-tetrahydropyrimido[2,1-c][1,4]oxazine-2-carboxamide]
- IC50: 2 to 100 nM

Molecule: CC1(C)OCCn2c1nc(C(=O)NCc1ccc(S(C)(=O)=O)o1)c(O)c2=O [Example 88, 3-Hydroxy-9,9-dimethyl-N-((5-(methylsulfonyl)furan-2-yl)methyl)-4-oxo-4,6,7,9-tetrahydropyrimido[2,1-c][1,4]oxazine-2-carboxamide]
- IC50: 100 to 1000 nM

Molecule: CC1(C)OCCn2c1nc(C(=O)NCc1cc(-c3ccccc3)no1)c(O)c2=O [Example 89, 3-Hydroxy-9,9-dimethyl-4-oxo-N-((3-phenyl-5-isoxazolyl)methyl)-4,6,7,9-tetrahydropyrimido[2,1-c][1,4]oxazine-2-carboxamide]
- IC50: ≥ 1000 nM

Molecule: CC1(C)OCCn2c1nc(C(=O)NCc1nc3c(s1)CCCCC3)c(O)c2=O [Example 90, 3-Hydroxy-9,9-dimethyl-4-oxo-N-(5,6,7,8-tetrahydro-4H-cyclohepta[d][1,3]thiazol-2-ylmethyl)-4,6,7,9-tetrahydropyrimido[2,1-c][1,4]oxazine-2-carboxamide]
- IC50: 2 to 100 nM

Molecule: Cc1cccc(-n2cc(CNC(=O)c3nc4n(c(=O)c3O)CCOC4(C)C)cn2)c1 [Example 91, 3-Hydroxy-9,9-dimethyl-N-((1-(3-methylphenyl)-1H-pyrazol-4-yl)methyl)-4-oxo-4,6,7,9-tetrahydropyrimido[2,1-c][1,4]oxazine-2-carboxamide]
- IC50: ≥ 1000 nM

Molecule: CC1(C)OCCn2c1nc(C(=O)NCc1nc3ccccc3s1)c(O)c2=O [Example 92, N-(1,3-Benzothiazol-2-ylmethyl)-3-hydroxy-9,9-dimethyl-4-oxo-4,6,7,9-tetrahydropyrimido[2,1-c][1,4]oxazine-2-carboxamide]
- IC50: 2 to 100 nM

Molecule: CCCn1ccc(CNC(=O)c2nc3n(c(=O)c2O)CCOC3(C)C)n1 [Example 93, 3-Hydroxy-9,9-dimethyl-4-oxo-N-((1-propyl-1H-pyrazol-3-yl)methyl)-4,6,7,9-tetrahydropyrimido[2,1-c][1,4]oxazine-2-carboxamide]
- IC50: 100 to 1000 nM

Molecule: Pyrimido[2,1-c][1,4]oxazine-2- carboxamide, 4,6,7,9-tetrahydro-3- hydroxy-9,9-dimethyl-4-oxo-N- (1H-pyrazol-3-ylmethyl)- [Example 69]
- IC50: 100 to 1000 nM
